What all share (assay type): physicochemical
The nature of series [1]: pKa, dissociation constant and pH of saturated aqueous solution. The conditions noted are these: read-out: pKa of the protonated form. The protocol: The pKa of the protonated form of Compound 1 was determined to be 1.94±0.01. The pH of a saturated aqueous solution of Compound 1 was 8.6.
A short description of series [2]: Solubility of drug substance in excipient Vitamin E TPGS. The text has this:
Vitamin E TPGS is a commercially available, non-ionic surfactant, derived from Vitamin E. It is commonly used to enhance the bioavailability of orally administered poorly water-soluble drugs.

Series [3] can be described thus: Solubility of Compound 1 polymorphs in aqueous systems, buffer solutions and biorelevant media. The settings on record: for Aqueous Solubility: Form C Lot: a, Form A Lot: b.
Series [4] is described as follows: Hygroscopicity (water sorption vs relative humidity).
The nature of series [5]: Polymorph screening, competitive slurry studies and humidity storage (form stability). From the text:
The key formulation challenge presented by Compound 1 was poor aqueous solubility. This could possibly limit absorption in vivo.

In brackets after ≈: the same amount, converted by molar mass. Entries after “also recorded” stand apart in the source; their conditions may differ.

For orientation: pKa means the pH at which an ionisable group is half protonated. What is called solubility is how much of the substance goes into solution per volume. Low readings indicate a poorly soluble substance, high ones a readily soluble substance. For the compound `CNc1cc(Nc2cccn(-c3ccccn3)c2=O)nc2c(C(=O)N[C@@H]3CC[C@H]3OC)cnn12` [Compound 1], the pKa in series [1] was 1.94. Moreover, in series [2], the “solubility in the excipient Vitamin E TPGS” value was “high solubility”. The solubility at 48 h in series [3] (FaSSGF, pH 1.42, fassgf or other biorelevant, thermodynamic from solid) was 34.6 µg/mL (≈ 75.1 µM); in series [3] (aqueous buffer, thermodynamic from solid, Initial Buffer pH 2.98, pH at 48 Hours 3.01, average of two runs), 18.9 µg/mL (≈ 41 µM); in series [3] (aqueous buffer, thermodynamic from solid, Initial Buffer pH 4.46, pH at 48 Hours 4.49, average of two runs), 13.3 µg/mL (≈ 28.9 µM); in series [3] (aqueous buffer, thermodynamic from solid, Initial Buffer pH 6.81, pH at 48 Hours 6.75, average of two runs), 4.1 µg/mL (≈ 8.9 µM); in series [3] (pH 8.6, thermodynamic from solid, Unbuffered water, pH at 48 Hours 8.6, average of three runs), 5.5 µg/mL (≈ 11.9 µM); in series [3] (simulated gastric fluid, thermodynamic from solid, Initial Buffer pH 1.21, pH at 48 Hours 1.19, average of two runs), 58.1 µg/mL (≈ 126 µM). Besides, the solubility at 48 h worked out at 29.1 µg/mL (≈ 63.2 µM) in series [3] (thermodynamic from solid, FaSSIF (pH 1.64), pH at 48 Hours 1.50, average of two runs) and 41 µg/mL (≈ 89 µM) in series [3] (thermodynamic from solid, FeSSIF (pH 5.03), pH at 48 Hours 5.03, average of two runs).
As a reminder, the Aqueous Solubility is the dissolved amount per volume that the medium holds. Turning to `CNc1cc(Nc2cccn(-c3ccccn3)c2=O)nc2c(C(=O)N[C@@H]3CC[C@H]3OC)cnn12` [Form C], the Hygroscopicity result in series [4] is on record as “Limited hygroscopicity”. Moreover, the “Hygroscopicity, wt gain” value in series [4] (at 75% RH) is “(1.75% wt gain at 75% RH)”. The same compound gave a water sorption in series [4] (between 5-95% relative humidity) of 1.75%. The “relative stability of solid form” value in series [5] (competitive slurry studies / polymorphs observed during development) is reported as “most stable anhydrous, un-solvated form; also recorded: most stable polymorph observed to date”. Besides, the “Conversion of Form C to Form A” value in series [5] (in water itself after 1 day) was “not observed”; in series [5] (storage at 90% RH at room temperature for 11 days), “no conversion to Form A was observed”. Also, the “water activity, aw, above which anhydrous Form C converts to hydrate Form A” value in series [5] (solvent slurries) was 0.62-0.82. Also, the Aqueous Solubility in series [3] (10 mM HCl, pH 2.0) came out at 58 µg/mL; in series [3] (50 mM Acetate buffer, pH 5.0), 13 µg/mL; in series [3] (50 mM Phosphate buffer, pH 6.8) it was 4 µg/mL; in series [3] (FaSSIF, pH 6.5), 29 µg/mL; in series [3] (FcSSIF, pH 5.0), 41 µg/mL; in series [3] (SGF, pH 1.2 (0.1% Triton X100)), 35 µg/mL. Also, the solubility in series [3] (FaSSIF, pH 6.5, fassif, thermodynamic from solid) was 29 µg/mL (≈ 63 µM); in series [3] (aqueous buffer, thermodynamic from solid, 50 mM Acetate buffer, pH 5.0), 13 µg/mL (≈ 28.2 µM); in series [3] (aqueous buffer, thermodynamic from solid, 50 mM Phosphate buffer, pH 6.8), 4 µg/mL (≈ 8.69 µM); in series [3] (aqueous with cosolvent or surfactant or cyclodextrin, thermodynamic from solid, SGF, pH 1.2 (0.1% Triton X100)), 35 µg/mL (≈ 76 µM); in series [3] (simulated gastric fluid, thermodynamic from solid, 10 mM HCl, pH 2.0), 58 µg/mL (≈ 126 µM); in series [3] (thermodynamic from solid, FeSSIF, pH 5.0), 41 µg/mL (≈ 89 µM).
